Structures are written as SMILES. The source made the active and inactive calls. Cut-off read from the data, not from the text of the source, for most assays here: actives have a measured IC50 and inactives only a lower limit.

For two molecules, IC50 and AC50 results are on record in ChEMBL document CHEMBL1201862, “PubChem BioAssay data set” (2004).

Assay [1] concerns the target T1, Sentrin-specific protease 6 (Homo sapiens, UniProt Q9GZR1).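 Note: Luminescence-based dose-response confirmatory assay of SENP6 inhibition, following up an ultra-high-throughput screen.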
T1 sequence (Q9GZR1 whole entry): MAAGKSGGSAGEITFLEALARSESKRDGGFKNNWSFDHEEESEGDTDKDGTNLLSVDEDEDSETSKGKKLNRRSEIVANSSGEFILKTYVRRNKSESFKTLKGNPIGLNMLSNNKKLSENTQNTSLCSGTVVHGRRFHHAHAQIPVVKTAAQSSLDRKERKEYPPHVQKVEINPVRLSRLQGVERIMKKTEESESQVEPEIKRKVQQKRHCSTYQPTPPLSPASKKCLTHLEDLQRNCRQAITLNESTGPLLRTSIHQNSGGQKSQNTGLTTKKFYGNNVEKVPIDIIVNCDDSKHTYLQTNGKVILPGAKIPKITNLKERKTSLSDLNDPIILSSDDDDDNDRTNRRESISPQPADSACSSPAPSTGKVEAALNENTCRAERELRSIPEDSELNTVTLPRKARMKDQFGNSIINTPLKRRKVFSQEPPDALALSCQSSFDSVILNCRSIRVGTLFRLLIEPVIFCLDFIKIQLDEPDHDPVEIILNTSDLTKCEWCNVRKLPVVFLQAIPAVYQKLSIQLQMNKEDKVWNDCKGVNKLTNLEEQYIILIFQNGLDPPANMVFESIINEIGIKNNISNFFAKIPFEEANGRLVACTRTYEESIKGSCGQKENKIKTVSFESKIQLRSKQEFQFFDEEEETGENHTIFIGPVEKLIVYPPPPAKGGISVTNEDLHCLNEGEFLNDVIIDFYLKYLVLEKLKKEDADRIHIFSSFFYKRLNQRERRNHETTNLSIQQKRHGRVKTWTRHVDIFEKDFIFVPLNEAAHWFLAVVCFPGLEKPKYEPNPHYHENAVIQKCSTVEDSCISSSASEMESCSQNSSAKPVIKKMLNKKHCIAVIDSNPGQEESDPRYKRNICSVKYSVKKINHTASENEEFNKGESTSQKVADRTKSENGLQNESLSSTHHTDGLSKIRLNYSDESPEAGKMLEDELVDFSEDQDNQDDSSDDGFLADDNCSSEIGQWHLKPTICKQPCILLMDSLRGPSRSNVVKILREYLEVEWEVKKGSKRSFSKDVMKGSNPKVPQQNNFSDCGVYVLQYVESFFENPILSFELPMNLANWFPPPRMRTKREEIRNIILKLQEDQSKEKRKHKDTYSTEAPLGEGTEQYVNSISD
In kind it is functional.

Assay [2] addresses T2, Histone-lysine N-methyltransferase NSD2 (Homo sapiens, UniProt O96028).
T2 sequence (O96028 whole entry): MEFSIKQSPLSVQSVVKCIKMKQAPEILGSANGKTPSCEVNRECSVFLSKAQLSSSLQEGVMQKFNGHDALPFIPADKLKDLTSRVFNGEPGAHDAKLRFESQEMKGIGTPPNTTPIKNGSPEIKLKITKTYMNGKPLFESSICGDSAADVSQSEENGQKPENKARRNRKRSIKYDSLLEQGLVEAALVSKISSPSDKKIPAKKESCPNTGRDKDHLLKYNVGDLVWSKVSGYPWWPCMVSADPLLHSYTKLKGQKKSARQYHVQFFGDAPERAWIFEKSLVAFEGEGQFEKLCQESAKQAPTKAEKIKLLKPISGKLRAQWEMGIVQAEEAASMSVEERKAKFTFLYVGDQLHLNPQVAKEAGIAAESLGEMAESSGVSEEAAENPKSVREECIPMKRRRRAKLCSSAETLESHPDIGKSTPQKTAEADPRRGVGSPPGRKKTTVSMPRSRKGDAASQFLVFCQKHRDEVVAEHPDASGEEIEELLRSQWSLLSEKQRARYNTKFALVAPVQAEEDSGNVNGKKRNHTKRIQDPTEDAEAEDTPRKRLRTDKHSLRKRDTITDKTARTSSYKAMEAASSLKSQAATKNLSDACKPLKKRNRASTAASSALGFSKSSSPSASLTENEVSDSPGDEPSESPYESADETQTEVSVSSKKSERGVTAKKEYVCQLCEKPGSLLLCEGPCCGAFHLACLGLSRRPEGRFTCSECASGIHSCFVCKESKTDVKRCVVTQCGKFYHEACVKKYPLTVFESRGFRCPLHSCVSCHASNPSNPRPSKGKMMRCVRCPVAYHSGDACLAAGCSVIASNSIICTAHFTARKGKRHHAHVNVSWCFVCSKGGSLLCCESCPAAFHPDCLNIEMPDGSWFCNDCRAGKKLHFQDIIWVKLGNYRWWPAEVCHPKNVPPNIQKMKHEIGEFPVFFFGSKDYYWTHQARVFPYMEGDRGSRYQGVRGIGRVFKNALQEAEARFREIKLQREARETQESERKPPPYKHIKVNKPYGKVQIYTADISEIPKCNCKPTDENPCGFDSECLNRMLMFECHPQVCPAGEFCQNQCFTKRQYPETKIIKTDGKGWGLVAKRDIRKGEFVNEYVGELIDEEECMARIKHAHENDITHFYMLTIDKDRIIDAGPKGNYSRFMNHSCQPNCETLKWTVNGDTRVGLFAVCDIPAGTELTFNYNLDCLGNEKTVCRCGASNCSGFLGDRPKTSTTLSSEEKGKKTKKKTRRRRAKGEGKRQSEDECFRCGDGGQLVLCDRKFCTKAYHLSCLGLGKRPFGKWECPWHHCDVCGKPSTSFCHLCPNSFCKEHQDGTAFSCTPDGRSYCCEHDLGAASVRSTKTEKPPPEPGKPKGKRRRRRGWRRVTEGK
The format is biochemical.

Assay [3] addresses T3, Sentrin-specific protease 8 (Homo sapiens, UniProt Q96LD8).
T3 sequence (Q96LD8 whole entry): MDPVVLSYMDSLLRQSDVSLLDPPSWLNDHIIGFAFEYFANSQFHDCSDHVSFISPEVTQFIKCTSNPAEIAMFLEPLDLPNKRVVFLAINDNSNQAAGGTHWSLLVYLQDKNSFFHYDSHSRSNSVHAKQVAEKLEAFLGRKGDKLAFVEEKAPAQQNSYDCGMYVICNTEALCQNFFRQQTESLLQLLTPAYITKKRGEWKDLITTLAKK
In kind it is functional.

The target in a further assay is T4, Caspase-3 (Homo sapiens, UniProt P42574).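 Note: Dose-response selectivity test against caspase-3 for candidate inhibitors of sentrin-specific proteases (SENPs).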
T4 sequence (P42574 whole entry): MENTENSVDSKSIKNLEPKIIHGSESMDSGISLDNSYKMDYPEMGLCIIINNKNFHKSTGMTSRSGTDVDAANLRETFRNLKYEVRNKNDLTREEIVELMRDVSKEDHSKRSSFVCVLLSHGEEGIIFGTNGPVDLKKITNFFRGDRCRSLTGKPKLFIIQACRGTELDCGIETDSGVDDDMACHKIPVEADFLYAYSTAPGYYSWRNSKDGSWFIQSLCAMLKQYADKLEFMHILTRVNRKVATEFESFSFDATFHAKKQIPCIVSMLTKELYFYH
In kind it is functional.

Regarding `O=C(COC(=O)c1ccc([N+](=O)[O-])s1)NCCc1ccccc1`, the values for the IC50 (in assay [1]; in assay [3]; on Caspase-3) were 4.79 µM (active), 4.74 µM (active) and 9.7 µM (active), respectively. Besides, the AC50 in assay [2] is > 20 µM (inactive).

As for `CCOC(=O)c1c(NS(=O)(=O)c2ccccc2)n(CCCOC)c2nc3ccccc3nc12`, the IC50 was 0.596 µM (active) in assay [1], 1.91 µM (active) in assay [3] and 10 µM (active) on Caspase-3. Further, the AC50 in assay [2] is 12.1 µM (active).

One may read the IC50 as the concentration at which inhibition is half-maximal. Usually AC50 stands for the concentration giving half of the maximal activity seen.
